Reference: ChEMBL document CHEMBL5608182, “Synthesis and evaluation of neuroactive steroids with novel pharmacophore at C-21 let identify a compound with advantageous PK profile and higher EC50 and Emax as PAM on GABAA receptor” (Eur J Med Chem, 2024)

Legend:
[1] = Toxicity in male Sprague-Dawley rat assessed as risk of consciousness loss by measuring time for first loss of righting reflex at 12.2 micromol/kg, ip measured within 4 hrs; type: organism-based; settings: in vivo, dose 12.2 µmol/kg
[2] = biological target: GABA-A receptor; anion channel; test: Inhibition of [35S]TBPS binding to GABA-A receptor in Sprague-Dawley rat brain cortical membrane incubated for 90 mins by liquid scintillation spectrometry; type: cell membranes, Cortex
[3] = Genotoxicity in Salmonella typhimurium TA1535 assessed as induction of reverse mutation in presence of rat liver S9 fraction; type: toxicity, subcellular; settings: salmonella enterica subsp. enterica serovar typhimurium
[4] = Toxicity in male Sprague-Dawley rat assessed as risk of consciousness loss by measuring time for first loss of righting reflex at 29.2 micromol/kg, ip measured within 4 hrs; type: organism-based; settings: in vivo, dose 29.2 µmol/kg
[5] = Genotoxicity in Salmonella typhimurium TA102 assessed as induction of reverse mutation in presence of rat liver S9 fraction; type: toxicity, subcellular; settings: salmonella enterica subsp. enterica serovar typhimurium
[6] = Genotoxicity in Salmonella typhimurium TA97 assessed as induction of reverse mutation in presence of rat liver S9 fraction; type: toxicity, subcellular; settings: salmonella enterica subsp. enterica serovar typhimurium
[7] = Genotoxicity in Salmonella typhimurium TA98 assessed as induction of reverse mutation in presence of rat liver S9 fraction; type: toxicity, subcellular; settings: salmonella enterica subsp. enterica serovar typhimurium

Structure (SMILES) | Time [1] | IC50 [2] | Activity [3] | Time [4] | Activity [5] | Activity [6] | Activity [7]
C[C@@]1(O)CC[C@H]2[C@H](CC[C@@H]3[C@@H]2CC[C@]2(C)[C@@H](C(=O)Cn4cc(C#N)cn4)CC[C@@H]32)C1 [ZURANOLONE] | 33 min | 7 nM |  |  |  |  | 
C[C@@]1(O)CC[C@H]2[C@H](CC[C@@H]3[C@@H]2CC[C@]2(C)[C@@H](C(=O)Cn4cnn(-c5cc(F)nc(F)c5)c4=O)CC[C@@H]32)C1 |  |  | Non-Toxic | 65 min | Non-Toxic | Non-Toxic | Non-Toxic
